In patent US20050003998A1, “Therapeutic use of selective LXR modulators” (priority 2002, published 2005):
Entries after “also recorded” stand apart in the source; their conditions may differ.

Assays:
[1] = test system: mouse adult neural stem cells derived from the lateral ventricle wall; assay: Intracellular ATP assay on adult mouse neurosphere cultures; format: cell-based; settings: for intracellular ATP levels, and hence cell number (adult mouse NSC proliferation or survival in vitro): 3 days, non-adherent conditions, values normalized to the vehicle (100%)
Procedure: The anterior lateral wall of the lateral ventricle of 5-6 week old mice was enzymatically dissociated in 0.8mg/ml hyaluronidase and 0.5 mg/ml trypsin in DMEM containing 4.5 mg/ml glucose and 80units/ml DNase at 37° C. for 20 min. The cells were gently triturated and mixed with three volumes of Neurosphere medium (DMEM/F12, B27 supplement, 12.5 mM HEPES pH7.4) containing 20 ng/ml EGF (unless otherwise stated), 100units/ml penicillin and 100 μg/ml streptomycin. After passing through a 70 μm strainer, the cells were pelleted at 160×g for 5 min. The supernatant was subsequently removed and the cells resuspended in Neurosphere medium supplemented as above, plated out in culture dishes and incubated at 37° C. Neurospheres were ready to be split approximately 7 days after plating.
To split neurosphere cultures, neurospheres were collected by centrifugation at 160×g for 5 min. The neurospheres were resuspended in 0.5 ml Trypsin/EDTA in HBSS (1×), incubated at 37° C. for 2 min and triturated gently to aid dissociation. Following a further 3 min incubation at 37° C. and trituration, 3 volumes of ice cold NSPH-media-EGF were added to stop further trypsin activity. The cells were pelleted at 220×g for 4 min, resuspended in fresh Neurosphere medium supplemented with 20 ng/ml EGF and 1 nM bFGF plated out and incubated at 37° C.
Mouse neurospheres, cultured as described above, from passage 2, were seeded in DMEM/F12 supplemented with B27 into a 96-well plate as single cells (10000 cells/well) to the substances to be measured were added at the concentrations indicated. After 3 days incubation, intracellular ATP was measured using the ATP-SL kit from BioThema, Sweden, according to the manufacturer's instructions. The LXR agonists: 5-Cholesten-24(s), 25-epoxy-3b-ol were purchased from Steraloids (no C6640-000): TO-901317 were purchased from Sigma-Aldrich (no T2320). The RXR agonist cis-4,7,10,13,16,19-Docosahexaenoic acid (DHA) were purchased from Sigma-Aldrich (no 43938). […]

irritant dermatitis = settings: phorbol 12-myristate-13-acetate on ears of CD1 mice; cited from earlier work
phospholipase A2 (PLA2) = settings: cited from earlier work; for PLA2 enzymatic activity / PLA2 mRNA: rat smooth muscle cells
[2] = test system: rat pheochromocytoma cells; settings: cited from earlier work
[3] = test system: beta-amyloid induced apoptosis; settings: Alzheimer's disease; cited from earlier work
cells in the LVW [4] = assay: Oral administration of TO-901317 in chow, BrdU incorporation in the lateral ventricle wall; format: in vivo, C57BL/6J male mice; settings: 4.3 and 43 mg/kg/day, mouse
Procedure: (§1) C57BL/6J male mice were housed under controlled temperature and humidity and had free access to water and chow. 40 mice were divided into 5 groups (n=8). Group 1 received chow mixed with 0.025% T0901317 (Sigma-Aldrich) ad libitum for 10 days (dose previously show to be effective for brain activity of the compound). On day 7 and 8 the animals received a single injection of 5-bromodeoxyuridine, 100 mg/kg i.p., respectively and were sacrificed on day 10 by means of cervical dislocation.
Group 2 received identical treatment except that the chow in this case contained 0.0025% T0901317. […] No correlation between weight gain, food intake or BrdU incorporation could be detected. […]
(§2) Brains were cut into 14-μm coronal sections using a cryostat-microtome. […] After 1 hour of washing, the BrdU-antibody complex was detected using 0.05% diaminobenzidine with 0.01% H2O2, and counterstained with Hematoxylin. […]
(§3) For all BrdU labeling experiments, three to six sections per animal were analyzed. BrdU-positive cells were counted along 2×250 micrometer strips of the lateral ventricle wall (including the ependymal cell layer and subventricular zone). […] The numbers of BrdU-positive cells are calculated per area (mm^2). The mean ± SEM were calculated. Differences between means were determined by one-way ANOVA.

cells in the LVW [5] = assay: Intracerebroventricular infusion of TO-901317, BrdU incorporation in the lateral ventricle wall; format: in vivo, male Wistar rats; settings: icv infusion 0.6 nmol/animal/day, 14 days, rat; calculated day concentration 0.2 μM
Procedure: 10 week old male Wistar rats maintained on a 12hr light/dark cycle with food and water ad libidum, were infused in the right lateral ventricle with TO-901317 (Sigma-Aldrich), using an Alzet pump (2002), 14 days at a daily dose of 0.6 nmol/animal/day (infused at a rate of 0.5 μl/hr; 50 μM solution). Bromodeoxyuridine (BrdU) (50 mg/ml) was also included in the infusion vehicle (0.9% saline containing 1 mg/ml mouse serum albumin (Sigma)) to enable measurement of proliferation by quantitation of BrdU incorporation in the DNA. Animals were sacrificed at day 14, perfused with PBS and the brains removed and frozen at −70° C. prior to sectioning for immumohistochemical analysis.
as §2, with “cryostat-microtome. The sections were thawed onto pretreated slides and fixed in 4% (wt/vol) paraformaldehyde/PBS for 10 min.” for “cryostat-microtome.”
as §3

[6] = Weight gain and food intake during oral administration; format: in vivo, C57BL/6J male mice; settings: chow with 0.025% or 0.0025% compound, mouse
Procedure: as §1
Group 2 received identical treatment except that the chow in this case contained 0.0025% T0901317. Group 3 and 4 received identical treatments as groups 1 and 2, respectively, with the exception that these animals received 5-bromodeoxyuridine injections on day 1 and 2 after the initiation of the experiment and were sacrificed on day 4. Group 5 served as control and received chow without any T0901317 but identical to groups 1-4 received two daily injections of 5-bromodeoxyuridine 100 mg/kg i.p. and was sacrificed two days later. The mean daily intake was 4.25±0.13 (S.E.M.) g chow, and the mean weight of the animals 24.8±0.11 (S.E.M.) g during the cause of the experiment resulting in an average dose of 43 mg/kg/day for groups 1 and 3 (“High”), and an average dose of 4.3 mg/kg/day for groups 2 and 4 (“Low”). […] No correlation between weight gain, food intake or BrdU incorporation could be detected. […]

SMILES	intracellular ATP levels, and hence cell number (adult mouse NSC proliferation or survival in vitro) [1]	irritant dermatitis (irritant dermatitis)	PLA2 enzymatic activity (phospholipase A2 (PLA2))	PLA2 mRNA (phospholipase A2 (PLA2))	neuronal differentiation measured as neurite outgrowth [2]	further results
C[C@H](CC[C@@H]1OC1(C)C)[C@H]1CC[C@H]2[C@@H]3CC=C4C[C@@H](O)CC[C@]4(C)[C@H]3CC[C@]12C [5-Cholesten-24(s), 25-epoxy-3b-ol]	mediates adult mouse NSC proliferation or survival in vitro					
CC(C)CC[C@@H](O)[C@@H](C)[C@H]1CC[C@H]2[C@@H]3CC=C4C[C@@H](O)CC[C@]4(C)[C@H]3CC[C@]12C [22(R)-hydroxycholesterol]		able to reduce irritant dermatitis	increased enzymatic activity	accumulation of PLA2 mRNA	induces neuronal differentiation	PLA2 promoter activity (phospholipase A2 (PLA2); transient transfection, in combination with 9-cis-retinoic acid): synergistically activated; beta-amyloid induced apoptosis [3]: prevention of beta-amyloid induced apoptosis
C[C@H](CCCC(C)(C)O)[C@H]1CC[C@H]2[C@@H]3CC=C4C[C@@H](O)CC[C@]4(C)[C@H]3CC[C@]12C [25-hydroxycholesterol]		able to reduce irritant dermatitis	increased enzymatic activity	accumulation of PLA2 mRNA		
O=C(O)Cc1cccc(OCCCN(Cc2cccc(C(F)(F)F)c2Cl)CC(c2ccccc2)c2ccccc2)c1 [GW3965]		able to reduce irritant dermatitis				
O=S(=O)(c1ccccc1)N(CC(F)(F)F)c1ccc(C(O)(C(F)(F)F)C(F)(F)F)cc1 [TO-901317]	mediates adult mouse NSC proliferation or survival in vitro					concentration-response relationship observed in vitro with cultured mouse NSC ([1]; Example 2, effective concentrations): 3 to 5 µM; incorporation of BrdU of cells in the LVW (cells in the LVW [4]): significantly decreased; also recorded: clearly effective; incorporation of BrdU in the LVW (cells in the LVW [5]): did not significantly change; also recorded: ineffective; weight gain or food intake [6]: No difference between groups
CCCCCCCCCCCCCCOc1ccc(C(=O)O)o1 [TOFA, 5-tetradecyloxy-2-furancarboxylic acid]					induces neuronal differentiation	
